Source: US5021569A, “4-azatricyclo[4.3.1.1(3,8)]undecylarylpiperazines with anxiolytic activity” (priority 1990, dated 1991)
Counter-ions that a name gives are not always drawn. Like-named read-outs stand apart in the source and are kept apart here.

Assays:
5-HT1A receptor = conditions: background literature; cited from earlier work
[1] = biological target: T1, 5-HT1A serotonin receptor subtype (Rattus norvegicus, UniProt P19327); experiment: 5-HT1A receptor binding, displacement of 3H-8-OH DPAT (procedure of Hall et al.); conditions: for inhibition at 0.1 µM: read-out: Affinity for 5-HT1A Receptor Sites, % Inhibition at 100 nM; for Ki: Ki calculated from IC50 values, read-out: Affinity for 5-HT1A Receptor Sites, Ki
T1 construct: from tissue
T1 sequence (P19327 1-422): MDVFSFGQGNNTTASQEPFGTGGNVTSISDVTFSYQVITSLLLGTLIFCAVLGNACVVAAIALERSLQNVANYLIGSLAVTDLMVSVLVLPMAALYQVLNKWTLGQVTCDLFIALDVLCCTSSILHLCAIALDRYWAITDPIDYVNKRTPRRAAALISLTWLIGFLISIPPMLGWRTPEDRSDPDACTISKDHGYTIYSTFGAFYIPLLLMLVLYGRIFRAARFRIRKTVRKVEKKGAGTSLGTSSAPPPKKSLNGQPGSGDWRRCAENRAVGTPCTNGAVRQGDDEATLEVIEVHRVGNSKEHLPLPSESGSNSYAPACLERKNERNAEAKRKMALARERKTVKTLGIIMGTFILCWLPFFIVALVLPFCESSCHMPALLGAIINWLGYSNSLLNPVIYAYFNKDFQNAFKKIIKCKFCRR
From the text: The serotoninergic properties of the compounds of this invention were established by the procedure of Hall et al., J. Neurochem.

D2 receptor = biological target: T2, D2 receptor (Rattus norvegicus, UniProt P61169); experiment: D2 receptor affinity, reduction of 3H-spiroperidol binding; conditions: read-out: Affinity for D2 Receptor Sites, % Inhibition at 1 μM
T2 construct: from tissue
T2 sequence (P61169 whole entry): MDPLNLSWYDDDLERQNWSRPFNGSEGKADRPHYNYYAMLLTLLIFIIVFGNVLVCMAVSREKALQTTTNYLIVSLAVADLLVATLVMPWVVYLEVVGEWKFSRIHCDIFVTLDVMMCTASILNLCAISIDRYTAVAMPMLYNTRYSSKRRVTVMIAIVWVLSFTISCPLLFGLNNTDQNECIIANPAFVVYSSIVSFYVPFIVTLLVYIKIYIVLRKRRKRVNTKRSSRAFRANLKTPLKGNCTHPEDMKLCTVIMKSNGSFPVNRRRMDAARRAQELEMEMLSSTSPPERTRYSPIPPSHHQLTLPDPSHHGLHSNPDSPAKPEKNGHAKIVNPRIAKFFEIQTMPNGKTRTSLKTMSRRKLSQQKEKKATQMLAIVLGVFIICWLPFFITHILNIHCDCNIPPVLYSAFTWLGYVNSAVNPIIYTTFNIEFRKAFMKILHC
Procedure: The percentage reduction of ^3 H-spiroperidol binding at 1 μM concentration of test compound is reported, infra.

[2] = background, U.S. Pat. No. 4,818,756; cited from earlier work
[3] = 100 nM test compound, 3H-8-OH DPAT
[4] = 1 μM test compound, 3H-spiroperidol

| Structure (SMILES) | binding at the 5-HT1A site (in words) (5-HT1A receptor) | inhibition at 0.1 µM [1, 3] | further results |
| --- | --- | --- | --- |
| O=C1CC2(CCCC2)CC(=O)N1CCCCN1CCN(c2ncccn2)CC1 [Buspirone, 8-[4-[-4-(2-pyrimidinyl)-1-piperazinyl]butyl]-8-azaspiro[4.5]decane-7,9-dione] | demonstrate binding at the 5-HT1A site |  |  |
| O=C(CCN1CCN(c2cccc(Cl)c2)CC1)N1CC2CC3CC(C2)CC1C3 [Example 1, 1-(4-Azatricyclo[4.3.1.1(3,8)]undec-4-yl)-3-[4-(3-chlorophenyl)-1-piperazinyl]-1-propanone] |  | 78% | Ki ([1]; 3H-8-OH DPAT): 30 nM; inhibition at 1 µM (D2 receptor; [4]): 42% |
| Clc1cccc(N2CCN(CCCN3CC4CC5CC(C4)CC3C5)CC2)c1 [Example 2, 4-[3-[4-(3-Chlorophenyl)-1-piperazinyl]propyl]-4-azatricyclo[4.3.1.1(3,8)]undecane Dihydrochloride One Third Hydrate] |  | 47% |  |
| COc1ccccc1N1CCN(CCC(=O)N2CC3CC4CC(C3)CC2C4)CC1 [Example 3, 1-(4-Azatricyclo[4.3.1.1(3,8)]undec-4-yl)-3-[4-(2-methoxyphenyl)-1-piperazinyl]-1-propanone Dihydrochloride Hydrate] |  |  | inhibition at 0.1 µM [1]: 92%; inhibition at 1 µM (D2 receptor): 71% |
| COc1ccccc1N1CCN(CCCN2CC3CC4CC(C3)CC2C4)CC1 [Example 4, 4-[3-[4-(2-Methoxyphenyl)-1-piperazinyl]propyl]-4-azatricyclo[4.3.1.1(3,8)]undecane Trihydrochloride One Quarter Hydrate] |  | 72% | Ki ([1]; 3H-8-OH DPAT): 33 nM; inhibition at 1 µM (D2 receptor; [4]): 14% |
| O=C(CCN1CCN(c2ncccn2)CC1)N1CC2CC3CC(C2)CC1C3 [Example 5, 1-(4-Azatricyclo[4.3.1.1(3,8)]undec-4-yl)-3-[4-(2-pyrimidinyl)-1-piperazinyl]-1-propanone] |  | 46% |  |
| O=C1c2ccccc2S(=O)(=O)N1CCCCN1CCN(c2ncccn2)CC1 [TVX Q 7821, 2-[4-[4-(2-pyrimidinyl)-1-piperazinyl]buyl]-1,2-benzisothiazol-3-(2H)one-1,1-dioxide hydrochloride] | demonstrate binding at the 5-HT1A site |  | antidepressant activity (in words) [2]: found to possess antidepressant activity |
| CCCC(C)C1(CC)C(=O)NC(=O)NC1=O (centres unmarked) [pentobarbital] | do not act via the 5-HT1A receptor |  |  |
